In PubChem BioAssay AID1259411 (Chemical Carcinogenesis Research Information System (CCRIS), 2018):
“Also recorded” adds a separate entry of the source. Active and inactive are the calls of the source. The rule behind the calls is not given here.

Tested on: rodent carcinogenicity bioassays, tumor incidence
Assay: CCRIS carcinogenicity studies
Method in brief: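 Archive of carcinogenicity, mutagenicity, tumor promotion and tumor inhibition results drawn from journals, NCI reports and other sources, expert-reviewed; covers 1985-2011 and is no longer updated.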

Cn1c(N)nc2c3cccnc3ccc21
carcinogen call (Species: MONKEY, Strain/Sex: MACAQUE/MALE,FEMALE, Route: GAVAGE, Dose: 0, 10, 20 MG/KG 5/D/WK FOR DURATION OF STUDY (STUDY DURATION: 91 MO), Dose: 0, 10, 20 MG/KG 5/D/WK FOR DURATION OF STUDY (STUDY DURATION: 91 MO), Tumor Site: Type of Lesion: LIVER: HEPATOCELLULAR CARCINOMA): active; positive | carcinogen call (Species: MOUSE, Strain/Sex: B6C3F1/MALE, Route: INTRAPERITONEAL, Dose: 0, 0.625 UMOL IN 35 µL DMSO ON D 1, 8, AND 15 AFTER BIRTH (STUDY DURATION: 8 MO), Tumor Site: Type of Lesion: LIVER: HEPATOCELLULAR ADENOMA): active; positive | carcinogen call (Species: MOUSE, Strain/Sex: B6C3F1/MALE, Route: INTRAPERITONEAL, Dose: 0, 0.625 UMOL IN 35 µL DMSO ON D 1, 8, AND 15 AFTER BIRTH (STUDY DURATION: 12 MO), Tumor Site: Type of Lesion: LIVER: HEPATOCELLULAR ADENOMA): active; positive | carcinogen call (Species: MOUSE, Strain/Sex: B6C3F1/MALE, Route: INTRAPERITONEAL, Dose: 0, 1.25 UMOL IN 35 µL DMSO ON D 1, 8, AND 15 AFTER BIRTH (STUDY DURATION: 8 MO), Tumor Site: Type of Lesion: LIVER: HEPATOCELLULAR ADENOMA): active; positive | carcinogen call (Species: MOUSE, Strain/Sex: B6C3F1/MALE, Route: INTRAPERITONEAL, Dose: 0, 1.25 UMOL IN 35 µL DMSO ON D 1, 8, AND 15 AFTER BIRTH (STUDY DURATION: 12 MO), Tumor Site: Type of Lesion: LIVER: HEPATOCELLULAR ADENOMA, HEPATOCELLULAR CARCINOMA): active; positive | carcinogen call (Species: MOUSE, Strain/Sex: CD-1/FEMALE, Route: INTRAPERITONEAL, ORAL, Dose: 0, 5 µL OF A 14 MG/ML SOLUTION IN DMSO ON DAYS 1, 3, 5, 7, 10, 13, 17, 21, 24 AND 28 OF LIFE THEN 2/WK TO WK 10 FOLLOWED, Tumor Site: Type of Lesion: LIVER: CARCINOMA, LUNG: ADENOMA): active; positive | carcinogen call (Species: MOUSE, Strain/Sex: CD-1/MALE, Route: INTRAPERITONEAL, ORAL, Dose: 0, 5 µL OF A 14 MG/ML SOLUTION IN DMSO ON DAYS 1, 3, 5, 7, 10, 13, 17, 21, 24 AND 28 OF LIFE THEN 2/WK TO WK 10 FOLLOWED, Tumor Site: Type of Lesion: LIVER: CARCINOMA): active; positive | carcinogen call (Species: MOUSE, Strain/Sex: CDF1/FEMALE, Route: ORAL, Dose: 0, 0.03% IN DIET FOR UP TO 675 D (STUDY DURATION: 675 D), Tumor Site: Type of Lesion: LIVER: HEPATOCELLULAR ADENOMA OR CARCINOMA OR HEMANGIOENDOTHELIOMA, FORESTOMACH: PAPILLOMA OR SQUAMOUS CELL CARCINOMA, L, Tumor Site: Type of Lesion: LIVER: HEPATOCELLULAR ADENOMA OR CARCINOMA OR HEMANGIOENDOTHELIOMA, FORESTOMACH: PAPILLOMA OR SQUAMOUS CELL CARCINOMA, L): active; positive | carcinogen call (Species: MOUSE, Strain/Sex: CDF1/MALE, Route: ORAL, Dose: 0, 0.03% IN DIET FOR UP TO 675 D (STUDY DURATION: 675 D), Tumor Site: Type of Lesion: LIVER: HEPATOCELLULAR ADENOMA OR CARCINOMA OR HEMANGIOENDOTHELIOMA, FORESTOMACH: PAPILLOMA OR SQUAMOUS CELL CARCINOMA, L, Tumor Site: Type of Lesion: LIVER: HEPATOCELLULAR ADENOMA OR CARCINOMA OR HEMANGIOENDOTHELIOMA, FORESTOMACH: PAPILLOMA OR SQUAMOUS CELL CARCINOMA, L): active; positive | carcinogen call (Species: MOUSE, Strain/Sex: EU-PIM-1/FEMALE, Route: ORAL, Dose: 0, 0.03% IN DIET FOR 24 WK (STUDY DURATION: 40 WK)): inactive; negative | carcinogen call (Species: MOUSE, Strain/Sex: EU-PIM-1/MALE, Route: ORAL, Dose: 0, 0.03% IN DIET FOR 24 WK (STUDY DURATION: 40 WK)): inactive; negative | carcinogen call (Species: MOUSE, Strain/Sex: NON-TRANSGENIC WILD-TYPE/FEMALE, Route: ORAL, Dose: 0, 0.03% IN DIET FOR 24 WK (STUDY DURATION: 40 WK)): inactive; negative | carcinogen call (Species: MOUSE, Strain/Sex: NON-TRANSGENIC WILD-TYPE/MALE, Route: ORAL, Dose: 0, 0.03% IN DIET FOR 24 WK (STUDY DURATION: 40 WK)): inactive; negative | carcinogen call (Species: MOUSE, Strain/Sex: SEVERE COMBINED IMMUNODEFICIENT/FEMALE, Route: ORAL, Dose: 0, 300 PPM IN THE DIET FOR 78 WK (STUDY DURATION: 78 WK), Tumor Site: Type of Lesion: LIVER: HEPATOCELLULAR CARCINOMA): active; positive | carcinogen call (Species: MOUSE, Strain/Sex: TRANSGENIC EU-PIM-1/FEMALE, Route: ORAL, Dose: 0, 0.03% IN DIET FOR 24 WK (STUDY DURATION: 40 WK)): inactive; negative | carcinogen call (Species: MOUSE, Strain/Sex: TRANSGENIC EU-PIM-1/MALE, Route: ORAL, Dose: 0, 0.03% IN DIET FOR 24 WK (STUDY DURATION: 40 WK)): inactive; negative | carcinogen call (Species: MOUSE, Strain/Sex: WILD-TYPE/FEMALE, Route: ORAL, Dose: 0, 0.03% IN DIET FOR 24 WK (STUDY DURATION: 40 WK)): inactive; negative | carcinogen call (Species: MOUSE, Strain/Sex: WILD-TYPE/MALE, Route: ORAL, Dose: 0, 0.03% IN DIET FOR 24 WK (STUDY DURATION: 40 WK)): inactive; negative | carcinogen call (Species: Mouse, Strain/Sex: Non transgenic rasH2 Wild-type/ Female (10/10)/(15/15), Route: Oral, Dose: 300 ppm in the diet starting at 7 weeks of age (Study duration: 26 weeks)): inactive; negative: although only hyperplasia observed in wild-type mouse, forestomach pa | carcinogen call (Species: Mouse, Strain/Sex: Non transgenic rasH2 Wild-type/ Male (10/10)/(15/15), Route: Oral, Dose: 300 ppm in the diet starting at 7 weeks of age (Study duration: 26 wks)): inactive; negative; although only hyperplasia observed in wild-type mouse, forestomach pa | carcinogen call (Species: Mouse, Strain/Sex: Parp-1+/+ C57BL/6/Male, Route: Oral, Dose: 300 ppm in diet for 60 wk, study duration 60 wk, Tumor Site: Type of Lesion: Spleen: Malignant lymphoma (3/18)): active; positive (no lung adenomas or forestomach papillomas found). parp-1 deficiency (; also recorded: active; positive (however, no lung adenomas or forestomach papillomas found. parp-1 defi | carcinogen call (Species: RAT, Strain/Sex: F344/MALE, Route: INTRARECTAL, Dose: 0, 50.5 MG/KG IN 1.7 ML/KG DMSO INFUSED 3/WK FOR 2 MO THEN 2/WK FOR DURATION OF STUDY (STUDY DURATION: 18 MO), Tumor Site: Type of Lesion: COLON: CARCINOMA, SKIN: SEBACEOUS SQUAMOUS CELL CARCINOMA): active; positive | carcinogen call (Species: RAT, Strain/Sex: SPRAGUE-DAWLEY/FEMALE, Route: GAVAGE, Dose: 0, 0.35 MMOL/KG BW IN 0.25 ML OF 5% EMULPHOR IN WATER 3/WK FOR WK 1-4 THEN 2/WK FOR WK 5-8 FOLLOWED BY 1/WK FOR 23 WK (S, Tumor Site: Type of Lesion: MAMMARY GLAND: CARCINOMA, LIVER: TUMOR, EAR DUCT: TUMOR, Tumor Site: Type of Lesion: MAMMARY GLAND: CARCINOMA, LIVER: TUMOR, EAR DUCT: TUMOR): active; positive | carcinogen call (Species: RAT, Strain/Sex: WISTAR/MALE, Route: INTRAGASTRIC, Dose: 0, 10 MG/KG IN ACIDIFIED WATER 1/D FOR 2 WK (STUDY DURATION: 58 WK)): inactive; negative

O=C1c2ccccc2C(=O)c2ccccc21
carcinogen call (Species: MOUSE, Strain/Sex: B6C3F1/MALE, Route: DIET, Dose: 0, 833, 2500, 7500 PPM FOR 2 YR (STUDY DURATION: 2 YRS), Dose: 0, 833, 2500, 7500 PPM FOR 2 YR (STUDY DURATION: 2 YRS), Tumor Site: Type of Lesion: LIVER: HEPATOCELLULAR ADENOMA, CARCINOMA OR HEPATOBLASTOMA): active; positive | carcinogen call (Species: RAT, Strain/Sex: F344/N/MALE, Route: DIET, Dose: 0, 469, 938, 1875, 3750 PPM FOR 2 YRS (STUDY DURATION: 2YRS), Dose: 0, 469, 938, 1875, 3750 PPM FOR 2 YRS (STUDY DURATION: 2YRS), Tumor Site: Type of Lesion: KIDNEY: RENAL TUBULE ADENOMA OR CARCINOMA, LIVER: HEPATOCELLULAR ADENOMA): active; positive | carcinogen call (Species: RAT, Strain/Sex: F344/N/MALE, Route: DIET, Dose: 0, 469, 938, 1875, 3750 PPM FOR 2 YRS (STUDY DURATION: 2YRS), Dose: 0, 469, 938, 1875, 3750 PPM FOR 2 YRS (STUDY DURATION: 2YRS), Tumor Site: Type of Lesion: KIDNEY: RENAL TUBULE ADENOMA, BLADDER: PAPILLOMA): active; positive; no true dose response, p values = 0.01 in these 2 cases; all others no

Cc1cc(O)c2c(c1O)C(=O)C13C(=C2O)C(=O)C2C(O)C1C1C(O)C3C(=O)C3=C(O)c4c(O)cc(C)c(O)c4C(=O)C321 (centres undefined)
carcinogen call (Species: MOUSE, Route: ORAL, Tumor Site: Type of Lesion: LIVER): active; positive

CCn1cc(C(=O)O)c(=O)c2cc(F)c(N3CCNCC3)cc21
carcinogen call (Species: Rat, Strain/Sex: F344/Male (15/Group), Route: Oral, Dose: 0, 750, 1500 mg/kg daily for 3 wks after 2/3rd partial hepatectomy, from 2 wks after carcinogen dosing, 500 ppm phenobar, Tumor Site: Type of Lesion: Liver): inactive; negative
